Measured values reported in patent US5223421A, “Identification of methionine Nα-acetyltransferase” (The General Hospital Corporation, priority 1990, dated 1993).
“Also recorded” adds a separate entry of the source. Like-named read-outs stand apart in the source and are kept apart here. Each block holds one compound with its values, some of them ahead of it. Ends that are not written are not given here.

Key:
[1] = system: methionine N^α -acetyltransferase from S. cerevisiae; assay: Effect of protein modification reagents on enzyme activity; type: biochemical, Saccharomyces cerevisiae; conditions: for Enzyme Activity (%): 30° C. 15 min, then dialyzed, substrate PAI (N=3)
Method: (§1) N^α -acetyltransferase activity was determined as previously described [Lee et al., J. Biol. Chem. 263:14948-14955 (1988)]. Aliquots of the lysate or chromatographic fractions were added to 1.5 ml Eppendorf tubes containing a reaction mixture of 50 mM HEPES, pH 7.4, 150 mM KCl, 1 mM DTT, 25 μM [^3 H] acetyl coenzyme A (0.5 μCi) and 50 μM synthetic peptide with an adjusted final volume of 100 μl. The assay mixture was incubated at 30° C. for 30 min. The reaction was stopped by adding 17 μl of 0.5M acetic acid and chilled in an ice bath. The reaction samples were filtered through SP membrane discs (Cuno) (previously pre-swollen in 0.5M acetic acid), and then washed three times with 1 ml of 0.5M acetic acid on a Millipore 1225 sampling manifold. The partially dried membranes were placed in scintillation cocktail and counted with a Beckman LS 3801 scintillation counter. One unit of activity was defined as the amount of enzyme able to transfer 1 pmol of [^3 H] acetyl group from [^3 H] acetyl coenzyme A to synthetic peptide per min under standard enzyme assay conditions defined above.
In order to determine the possible catalytic role for different types of amino acid residues in the enzyme, various chemical modifications were carried out (Table 10). Yeast methionine acetyltransferase was incubated with each reagent at 30° C. for 15 min, dialyzed against 50 mM HEPES, pH 7.4, 150 mM, 1 mM DTT at 4° C. for 3 to 4 hr. The enzyme activity was determined under standard assay conditions using PAI (N=3), assayed as described above.

[2] = system: methionine N^α -acetyltransferase (M-N^α -AT); assay: Relative activity of M-N^α -AT for N^α -acetylation of synthetic peptides; type: biochemical, Saccharomyces cerevisiae; set-up: tested at 50 µM; conditions: Table 7, influence of the penultimate amino terminal residue
Method: as §1, with “-acetylt[…]” for “-acetyltransferase activity”
(§2) In order to compare the relative specificity and activity of the methionine N^α -acetylt[…] (M-N^α -AT) of the present invention with the specificity and activity of the AAA1 N^α -acetyltransferase (N^α -AT) of Lee, F.-J. S., et al., J. Bacteriol. 171, (1989), U.S. Patent Application of John A. Smith, and Fang-Jen S. Lee, filed Oct. 25, 1989, entitled "ISOLATION OF STRAINS OF SAC[…] ALTERED N^α -ACETYLT[…]" (which references have been incorporated herein by reference) synthetic peptides were prepared. These peptides were assessed for their ability to serve as substrates for the two enzymes. In Table 6, the effect of the amino terminal amino acid on activity is investigated; in Table 7, the effect of the penultimate amino terminal amino acid on activity is investigated.

[3] = target: T1, AAA1 N^α -acetyltransferase (N^α -AT) (Saccharomyces cerevisiae, UniProt P07347+P12945); assay: Relative activity of N^α -AT for N^α -acetylation of synthetic peptides; type: biochemical
T1 sequence (P12945 2-854 limits assumed): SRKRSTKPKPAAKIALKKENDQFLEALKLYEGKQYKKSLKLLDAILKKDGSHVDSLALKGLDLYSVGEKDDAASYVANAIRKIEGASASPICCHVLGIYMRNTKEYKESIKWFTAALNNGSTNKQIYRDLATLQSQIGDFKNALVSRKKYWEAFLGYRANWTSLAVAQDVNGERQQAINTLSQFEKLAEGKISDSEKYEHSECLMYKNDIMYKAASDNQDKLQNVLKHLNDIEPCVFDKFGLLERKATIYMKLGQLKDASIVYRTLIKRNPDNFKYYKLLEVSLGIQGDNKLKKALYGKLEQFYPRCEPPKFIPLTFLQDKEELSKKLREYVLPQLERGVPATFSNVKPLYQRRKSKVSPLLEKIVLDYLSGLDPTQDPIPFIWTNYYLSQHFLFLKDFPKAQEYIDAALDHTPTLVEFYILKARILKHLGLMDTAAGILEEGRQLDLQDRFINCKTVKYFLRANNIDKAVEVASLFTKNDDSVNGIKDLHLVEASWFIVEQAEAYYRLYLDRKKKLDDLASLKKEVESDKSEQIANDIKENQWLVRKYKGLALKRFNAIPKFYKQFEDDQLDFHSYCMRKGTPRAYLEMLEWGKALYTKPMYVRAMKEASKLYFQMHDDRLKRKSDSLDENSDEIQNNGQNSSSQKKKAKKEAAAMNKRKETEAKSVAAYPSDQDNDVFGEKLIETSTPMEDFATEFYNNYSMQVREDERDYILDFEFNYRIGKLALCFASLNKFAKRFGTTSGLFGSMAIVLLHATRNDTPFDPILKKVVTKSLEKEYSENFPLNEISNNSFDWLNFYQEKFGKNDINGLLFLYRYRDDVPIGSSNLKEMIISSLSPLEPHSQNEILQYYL
T1 sequence (P07347 1-238): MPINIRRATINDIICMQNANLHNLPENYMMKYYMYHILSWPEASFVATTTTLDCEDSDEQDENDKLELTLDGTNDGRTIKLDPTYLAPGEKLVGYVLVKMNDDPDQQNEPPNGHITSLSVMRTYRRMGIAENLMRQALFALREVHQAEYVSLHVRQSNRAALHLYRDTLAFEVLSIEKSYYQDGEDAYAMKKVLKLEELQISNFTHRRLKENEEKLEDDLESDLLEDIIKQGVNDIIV
Method: as §1, with “-acetylt[…]” for “-acetyltransferase activity”
as §2

[4] = system: methionine N^α -acetyltransferase from S. cerevisiae; type: biochemical, Saccharomyces cerevisiae; conditions: for effect of ion or salt on M-N^α AT activity: concentration not given; for Enzyme Activity (%): 5 min room temperature, 50 mM HEPES pH 7.4, 1 mM DTT, substrate PAI (N=3); for effect of divalent cation on M-N^α AT activity: 1 mM
Method: as §1, with “counter.” for “counter. One unit of activity was defined as the amount of enzyme able to transfer 1 pmol of [^3 H] acetyl group from [^3 H] acetyl coenzyme A to synthetic peptide per min under standard enzyme assay conditions defined above.”
Yeast methionine acetyltransferase was incubated in the presence of various divalent cations at a room temperature for 5 min in 50 mM HEPES, pH 7.4 containing 1 mM DTT. The enzyme activity was determined under standard assay conditions using PAI (N=3), as described above.

[5] = Table 7, influence of the penultimate amino terminal residue
[6] = Table 6, influence of the amino terminal residue

effect of reagent on M-N^α AT activity ([1]; concentration not given): without effect | Enzyme Activity (%) ([1]; reagent 1.0 mM): 100% | Enzyme Activity (%) ([1]; reagent 10.0 mM): 93%
Compound: CC(=O)n1ccnc1 [N-acetylimidazole]

Compound: SHPETQKGVIFYESHGKLEYKDIP (SHPETQKGVIFYESHGKLEYKDIP)
Activity (%) (mean activity ± S.D.) M-N^a -AT [2]: 0% | Activity (%) (mean activity ± S.D.) N^a -AT [3, 5]: 125 ± 6%

Compound: SWPETQKGVIFYESHGKLEYKDIP (SWPETQKGVIFYESHGKLEYKDIP)
Activity (%) (mean activity ± S.D.) M-N^a -AT [2]: 0% | Activity (%) (mean activity ± S.D.) N^a -AT [3, 5]: 91 ± 5%

Compound: [Cl-].[Cl-].[Co+2] [CoCl2]
effect of ion or salt on M-N^α AT activity [4]: pronounced and concentration-dependent inhibition | Enzyme Activity (%) ([4]; salt 0.01 mM): 106% | Enzyme Activity (%) ([4]; salt 0.1 mM): 95% | Enzyme Activity (%) ([4]; salt 1 mM): 38%

Compound: SPPETQKGVIFYESHGKLEYKDIP (SPPETQKGVIFYESHGKLEYKDIP)
Activity (%) (mean activity ± S.D.) M-N^a -AT [2]: 0% | Activity (%) (mean activity ± S.D.) N^a -AT [3, 5]: 0%

Compound: NO [hydroxylamine]
effect of reagent on M-N^α AT activity ([1]; concentration not given): slowly inactivated the enzyme | original enzyme activity recovered after diethyl pyrocarbonate inactivation ([1]; incubation 6 hr at room temperature with […] hydroxylamine, 250000 µM): ~ 50%

effect of reagent on M-N^α AT activity ([1]; concentration not given): nearly complete inactivation | Enzyme Activity (%) ([1]; reagent 0.05 mM): 59% | Enzyme Activity (%) ([1]; reagent 0.5 mM): 0%
Compound: CCOC(=O)OC(=O)OCC [DEPC, diethyl pyrocarbonate]

Compound: [Mg+2] [Mg^2+]
effect of divalent cation on M-N^α AT activity [4]: had no effect

Compound: O=S(=O)([O-])[O-].[Mg+2] [MgSO4]
effect of ion or salt on M-N^α AT activity [4]: did not affect enzyme activity | Enzyme Activity (%) ([4]; salt 0.1 mM): 102% | Enzyme Activity (%) ([4]; salt 1 mM): 97%

Compound: O=S(=O)([O-])[O-].[Fe+2] [FeSO4]
effect of ion or salt on M-N^α AT activity [4]: pronounced and concentration-dependent inhibition | Enzyme Activity (%) ([4]; salt 0.01 mM): 108% | Enzyme Activity (%) ([4]; salt 0.1 mM): 93% | Enzyme Activity (%) ([4]; salt 1 mM): 40%

Compound: [Ca+2].[Cl-].[Cl-] [CaCl2]
effect of divalent cation on M-N^α AT activity [4]: had no effect | effect of ion or salt on M-N^α AT activity [4]: did not affect enzyme activity | Enzyme Activity (%) ([4]; salt 1 mM): 102%

Compound: VIPETQKGVIFYESHGKLEYKDIP (VIPETQKGVIFYESHGKLEYKDIP)
Activity (%) (mean activity ± S.D.) N^a -AT [3, 6]: 69 ± 4%

Compound: FIPETQKGVIFYESHGKLEYKDIP (FIPETQKGVIFYESHGKLEYKDIP)
Activity (%) (mean activity ± S.D.) N^a -AT [3, 6]: 9 ± 2%

effect of reagent on M-N^α AT activity ([1]; concentration not given): partially inactivated the enzyme | Enzyme Activity (%) ([1]; reagent 1.0 mM): 93% | Enzyme Activity (%) ([1]; reagent 10.0 mM): 62%
Compound: C[S+](C)Cc1cc([N+](=O)[O-])ccc1O.[Br-] [HNBS(CH3)2 -Br, dimethyl-(2-hydroxy-5-nitrobenzyl)sulfonium bromide]

effect of reagent on M-N^α AT activity ([1]; 0.5 mM): partially inactivated the enzyme | effect of reagent on M-N^α AT activity ([1]; 5 mM): completely inactivated the enzyme | Enzyme Activity (%) ([1]; reagent 0.5 mM): 30% | Enzyme Activity (%) ([1]; reagent 5.0 mM): 0%
Compound: O=C1CCC(=O)N1Br [NBS, N-bromosuccinimide]

Compound: [Cl-].[Cl-].[Mg+2] [MgCl2]
effect of ion or salt on M-N^α AT activity [4]: did not affect enzyme activity | Enzyme Activity (%) ([4]; salt 0.1 mM): 105% | Enzyme Activity (%) ([4]; salt 1 mM): 98%

Compound: [Cl][Mn][Cl] [MnCl2]
effect of divalent cation on M-N^α AT activity [4]: had no effect | effect of ion or salt on M-N^α AT activity [4]: did not affect enzyme activity | Enzyme Activity (%) ([4]; salt 0.1 mM): 103% | Enzyme Activity (%) ([4]; salt 1 mM): 98%

Compound: PIPETQKGVIFYESHGKLEYKDIP (PIPETQKGVIFYESHGKLEYKDIP)
Activity (%) (mean activity ± S.D.) N^a -AT [3, 6]: 70 ± 4%

Compound: [Cl][Cd][Cl] [CdCl2]
effect of ion or salt on M-N^α AT activity ([4]; listed as Cd^2+): pronounced and concentration-dependent inhibition; also recorded: also inhibited | Enzyme Activity (%) ([4]; salt 0.01 mM): 103% | Enzyme Activity (%) ([4]; salt 0.1 mM): 72% | Enzyme Activity (%) ([4]; salt 1 mM): 0%

Compound: HIPETQKGVIFYESHGKLEYKDIP (HIPETQKGVIFYESHGKLEYKDIP; also: tritium label)
Activity (%) (mean activity ± S.D.) N^a -AT [3, 6]: 19 ± 2%

Compound: MIPETQKGVIFYESHGKLEYKDIP (MIPETQKGVIFYESHGKLEYKDIP)
Activity (%) (mean activity ± S.D.) N^a -AT [3, 6]: 15 ± 2%

Compound: YIPETQKGVIFYESHGKLEYKDIP (YIPETQKGVIFYESHGKLEYKDIP)
Activity (%) (mean activity ± S.D.) N^a -AT [3, 6]: 20 ± 2%

Compound: TIPETQKGVIFYESHGKLEYKDIP (TIPETQKGVIFYESHGKLEYKDIP)
Activity (%) (mean activity ± S.D.) N^a -AT [3, 6]: 103 ± 5%
